According to the supplement of paper PMC7695840:

How the values were obtained:
[1] = system: Staphylococcus aureus MW2 delta-mecA (mecA-); experiment: IC50 (growth, competition assay); conditions: cefoxitin: subinhibitory
Summary of the method: (§1)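 Signals from DsRed (540/590) and GFP (485/520) were scaled on every plate between single-strain control medians, with No Treatment then set to 0.5. The cells were a 1:1 mix of pre-induced fluorescent S. aureus MW2 strains with and without the resistance gene, grown unshaken for 20 h at 37 °C and 90% humidity in LB in 1536-well plates under a subinhibitory drug dose set each day. Each strain's IC50 was defined as the dose halving the No Treatment signal, or the maximal signal.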

[2] = system: Staphylococcus aureus MW2 (mecA+); experiment: IC50 (growth, competition assay); conditions: cefoxitin: subinhibitory
Summary of the method: as §1

## O=C(O)CCCCC(CCSCc1ccccc1)SCc1ccccc1 (centres undefined) [CPI-613]
[1]; fluorescent label: DsRed
  IC50: < 9.85 µM
[1]; fluorescent label: GFP
  IC50: < 9.85 µM
[2]; fluorescent label: DsRed
  IC50: 15.5 µM
[2]; fluorescent label: GFP
  IC50: 15 µM

## C[C@H]1COC2=C1C(=O)C(=O)c1c2ccc2c1CCCC2(C)C [CRYPTOTANSHINONE]
[1]; fluorescent label: DsRed
  IC50: 11.3 µM
[1]; fluorescent label: GFP
  IC50: 10.5 µM
[2]; fluorescent label: DsRed
  IC50: 13 µM
[2]; fluorescent label: GFP
  IC50: 15.7 µM

## COc1cc(/C=C/C(=O)CC(=O)/C=C/c2ccc(O)c(OC)c2)ccc1O [CURCUMIN]
[1]; fluorescent label: DsRed
  IC50: < 9.85 µM
[1]; fluorescent label: GFP
  IC50: < 9.85 µM
[2]; fluorescent label: DsRed
  IC50: 26.8 µM
[2]; fluorescent label: GFP
  IC50: 50.1 µM

## CC1CC(OC(=O)C(O)c2ccccc2)CC(C)(C)C1 (centres undefined) [CYCLOSPASMOL]
[1]; fluorescent label: DsRed
  IC50: 15.1 µM
[1]; fluorescent label: GFP
  IC50: 13.8 µM
[2]; fluorescent label: DsRed
  IC50: 45.1 µM
[2]; fluorescent label: GFP
  IC50: 83.4 µM

## N[C@@H](Cc1cc(I)c(Oc2ccc(O)c(I)c2)c(I)c1)C(=O)O [CYTOMEL]
[1]; fluorescent label: DsRed
  IC50: 14 µM
[1]; fluorescent label: GFP
  IC50: < 9.85 µM
[2]; fluorescent label: DsRed
  IC50: 60.3 µM
[2]; fluorescent label: GFP
  IC50: 49.1 µM

## O=C(/C=C/c1ccc(O)c(O)c1)OCCc1ccccc1 [Caffeic acid phenethyl ester]
[1]; fluorescent label: DsRed
  IC50: 22.9 µM
[1]; fluorescent label: GFP
  IC50: 19.4 µM
[2]; fluorescent label: DsRed
  IC50: 57.7 µM
[2]; fluorescent label: GFP
  IC50: 88.4 µM

## CNc1ccc2oc(C[C@H]3O[C@@]4(CC[C@H]3C)O[C@H]([C@H](C)C(=O)c3ccc[nH]3)[C@H](C)C[C@H]4C)nc2c1C(=O)O [Calcimycin]
[1]; fluorescent label: DsRed
  IC50: < 9.85 µM
[1]; fluorescent label: GFP
  IC50: < 9.85 µM
[2]; fluorescent label: DsRed
  IC50: < 9.85 µM
[2]; fluorescent label: GFP
  IC50: < 9.85 µM

## Clc1ccc(C(c2ccc(Cl)cc2)[n+]2ccn(CC(OCc3ccc(Cl)cc3Cl)c3ccc(Cl)cc3Cl)c2)cc1 (centres undefined) [Calmidazolium chloride]
[1]; fluorescent label: DsRed
  IC50: < 9.85 µM
[1]; fluorescent label: GFP
  IC50: < 9.85 µM
[2]; fluorescent label: DsRed
  IC50: < 9.85 µM
[2]; fluorescent label: GFP
  IC50: < 9.85 µM

## Oc1cc2c(cc1O)CN(C(=S)NCCc1ccc(Cl)cc1)CCC2 [Capsazepine]
[1]; fluorescent label: DsRed
  IC50: 34.5 µM
[1]; fluorescent label: GFP
  IC50: 36.1 µM
[2]; fluorescent label: DsRed
  IC50: 59.4 µM
[2]; fluorescent label: GFP
  IC50: 111 µM

## CC1(C)S[C@@H]2[C@H](NC(=O)C(C(=O)O)c3ccccc3)C(=O)N2[C@H]1C(=O)O (some centres undefined) [Carbenicillin disodium]
[1]; fluorescent label: DsRed
  IC50: < 9.85 µM
[1]; fluorescent label: GFP
  IC50: < 9.85 µM
[2]; fluorescent label: DsRed
  IC50: 20.8 µM
[2]; fluorescent label: GFP
  IC50: 42.1 µM

## CCCCCCNC(=O)n1cc(F)c(=O)[nH]c1=O [Carmofur]
[1]; fluorescent label: DsRed
  IC50: < 9.85 µM
[1]; fluorescent label: GFP
  IC50: < 9.85 µM
[2]; fluorescent label: DsRed
  IC50: < 9.85 µM
[2]; fluorescent label: GFP
  IC50: < 9.85 µM

## CC[C@H](C)C[C@H](C)CCCCCCCCC(=O)N[C@H]1C[C@@H](O)[C@@H](NCCN)NC(=O)[C@@H]2[C@@H](O)CCN2C(=O)[C@H]([C@H](O)CCN)NC(=O)[C@H]([C@H](O)[C@@H](O)c2ccc(O)cc2)NC(=O)[C@@H]2C[C@@H](O)CN2C(=O)[C@H]([C@@H](C)O)NC1=O [Caspofungin acetate]
[1]; fluorescent label: DsRed
  IC50: 14.4 µM
[1]; fluorescent label: GFP
  IC50: < 9.85 µM
[2]; fluorescent label: DsRed
  IC50: 36.7 µM
[2]; fluorescent label: GFP
  IC50: 42.1 µM

## N[C@@H](C(=O)N[C@@H]1C(=O)N2C(C(=O)O)=C(Cl)CS[C@H]12)c1ccccc1 [Cefaclor (Ceclor)]
[1]; fluorescent label: DsRed
  IC50: < 0.498 µM
[1]; fluorescent label: GFP
  IC50: < 0.498 µM
[2]; fluorescent label: DsRed
  IC50: 7.22 µM
[2]; fluorescent label: GFP
  IC50: 7.26 µM

## N[C@@H](C(=O)N[C@@H]1C(=O)N2C(C(=O)O)=C(Cl)CS[C@H]12)c1ccccc1 [Cefaclor]
[1]; fluorescent label: DsRed
  IC50: < 9.85 µM
[1]; fluorescent label: GFP
  IC50: < 9.85 µM
[2]; fluorescent label: DsRed
  IC50: < 9.85 µM
[2]; fluorescent label: GFP
  IC50: < 9.85 µM

## Cc1nnc(SCC2=C(C(=O)O)N3C(=O)[C@@H](NC(=O)Cn4cnnn4)[C@H]3SC2)s1 [Cefazolin sodium]
[1]; fluorescent label: DsRed
  IC50: < 9.85 µM
[1]; fluorescent label: GFP
  IC50: < 9.85 µM
[2]; fluorescent label: DsRed
  IC50: < 9.85 µM
[2]; fluorescent label: GFP
  IC50: < 9.85 µM

## C=CC1=C(C(=O)O)N2C(=O)[C@@H](NC(=O)/C(=N\O)c3csc(N)n3)[C@H]2SC1 [Cefdinir (Omnicef)]
[1]; fluorescent label: DsRed
  IC50: < 0.498 µM
[1]; fluorescent label: GFP
  IC50: < 0.498 µM
[2]; fluorescent label: DsRed
  IC50: 4.17 µM
[2]; fluorescent label: GFP
  IC50: 3.6 µM
